Experimental data as given in the kinase profiling compilation of Christmann-Franck et al. (2016).

Legend:
Experiment in all cases: KINOMEscan competition binding
Conditions in all cases: compound 10.0 µM
[1] = target: INSRR (human) (UniProt P14616)
[2] = target: DCLK1 (human) (UniProt O15075)
[3] = target: NEK7 (human) (UniProt Q8TDX7)
[4] = target: AXL (human) (UniProt P30530)
[5] = target: RPS6KA4 KD2 (human) (UniProt O75676)
[6] = target: SRMS (human) (UniProt Q9H3Y6)
[7] = target: MAK (human) (UniProt P20794)
[8] = target: CDKL2 (human) (UniProt Q92772)
[9] = target: CIT (human) (UniProt O14578)
[10] = target: GSK3B (human) (UniProt P49841)
[11] = target: FGFR4 (human) (UniProt P22455)
[12] = target: PRKCH (human) (UniProt P24723)
[13] = target: IKBKE (human) (UniProt Q14164)
[14] = target: MYO3A (human) (UniProt Q8NEV4)
[15] = target: CAMK1G (human) (UniProt Q96NX5)
[16] = target: CSK (human) (UniProt P41240)
[17] = target: MAP2K5 (human) (UniProt Q13163)
[18] = target: MAPK10 (human) (UniProt P53779)
[19] = target: TEK (human) (UniProt Q02763)
[20] = target: HIPK1 (human) (UniProt Q86Z02)
[21] = target: MAP3K4 (human) (UniProt Q9Y6R4)
[22] = target: GRK7 (human) (UniProt Q8WTQ7)
[23] = target: PRKG1 (human) (UniProt Q13976)
[24] = target: DAPK2 (human) (UniProt Q9UIK4)
[25] = target: PLK2 (human) (UniProt Q9NYY3)
[26] = target: AAK1 (human) (UniProt Q2M2I8)
[27] = target: GAK (human) (UniProt O14976)
[28] = target: PKN2 (human) (UniProt Q16513)
[29] = target: CAMK2B (human) (UniProt Q13554)
[30] = target: HIPK4 (human) (UniProt Q8NE63)
[31] = target: MAPK7 (human) (UniProt Q13164)
[32] = target: FLT3 (human) (UniProt P36888)
[33] = target: JAK2 JH1 catalytic (human) (UniProt O60674)
[34] = target: CAMK2A (human) (UniProt Q9UQM7)
[35] = target: RPS6KA6 KD2 (human) (UniProt Q9UK32)
[36] = target: YSK4 (human) (UniProt Q56UN5)
[37] = target: CHEK2 (human) (UniProt O96017)
[38] = target: JAK1 JH1 catalytic (human) (UniProt P23458)
[39] = target: LTK (human) (UniProt P29376)
[40] = target: STK4 (human) (UniProt Q13043)

Sequence of MAP2K5 (human) (Q13163 whole entry, looked up): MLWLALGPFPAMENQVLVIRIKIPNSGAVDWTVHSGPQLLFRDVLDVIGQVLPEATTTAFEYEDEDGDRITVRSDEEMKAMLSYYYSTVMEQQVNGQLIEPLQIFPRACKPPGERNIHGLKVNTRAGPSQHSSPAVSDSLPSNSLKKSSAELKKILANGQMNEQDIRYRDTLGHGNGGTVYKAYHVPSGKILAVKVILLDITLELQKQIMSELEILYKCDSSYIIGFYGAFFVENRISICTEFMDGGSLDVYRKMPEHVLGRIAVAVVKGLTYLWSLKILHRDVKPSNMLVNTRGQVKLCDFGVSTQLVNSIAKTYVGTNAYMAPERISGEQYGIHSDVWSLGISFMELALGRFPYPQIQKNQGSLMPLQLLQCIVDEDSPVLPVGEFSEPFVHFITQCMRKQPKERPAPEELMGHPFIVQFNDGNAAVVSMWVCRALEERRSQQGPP
Sequence of JAK2 JH1 catalytic (human) (O60674 whole entry, looked up): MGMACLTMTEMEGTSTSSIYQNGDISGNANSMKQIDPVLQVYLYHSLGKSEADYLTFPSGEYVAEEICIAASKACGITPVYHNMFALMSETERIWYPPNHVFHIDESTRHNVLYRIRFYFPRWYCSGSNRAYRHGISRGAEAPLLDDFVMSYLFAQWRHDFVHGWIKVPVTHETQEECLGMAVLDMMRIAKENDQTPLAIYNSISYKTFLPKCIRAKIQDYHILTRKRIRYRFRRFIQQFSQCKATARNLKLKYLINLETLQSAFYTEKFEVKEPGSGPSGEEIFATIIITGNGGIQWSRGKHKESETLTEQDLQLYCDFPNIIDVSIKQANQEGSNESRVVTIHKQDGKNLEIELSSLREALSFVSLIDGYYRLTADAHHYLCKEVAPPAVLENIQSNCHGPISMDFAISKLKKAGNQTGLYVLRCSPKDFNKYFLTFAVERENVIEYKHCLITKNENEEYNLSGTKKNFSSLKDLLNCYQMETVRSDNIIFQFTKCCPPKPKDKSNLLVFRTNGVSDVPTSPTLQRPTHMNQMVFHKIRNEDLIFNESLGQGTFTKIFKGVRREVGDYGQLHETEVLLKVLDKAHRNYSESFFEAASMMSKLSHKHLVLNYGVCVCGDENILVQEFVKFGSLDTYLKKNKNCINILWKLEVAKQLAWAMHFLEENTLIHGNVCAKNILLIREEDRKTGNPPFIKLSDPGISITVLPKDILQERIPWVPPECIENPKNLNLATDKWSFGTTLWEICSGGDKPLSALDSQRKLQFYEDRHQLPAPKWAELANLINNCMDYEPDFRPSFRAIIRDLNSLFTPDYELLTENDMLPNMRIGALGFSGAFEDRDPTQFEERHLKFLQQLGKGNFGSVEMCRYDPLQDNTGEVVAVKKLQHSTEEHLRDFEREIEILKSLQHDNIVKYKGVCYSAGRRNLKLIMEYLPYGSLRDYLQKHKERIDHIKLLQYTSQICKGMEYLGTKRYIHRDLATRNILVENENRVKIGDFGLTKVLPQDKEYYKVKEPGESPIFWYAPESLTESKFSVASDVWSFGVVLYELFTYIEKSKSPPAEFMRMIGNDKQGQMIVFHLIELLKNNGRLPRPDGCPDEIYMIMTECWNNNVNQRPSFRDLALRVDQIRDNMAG
Sequence of MAP3K4 (human) (Q9Y6R4 whole entry, looked up): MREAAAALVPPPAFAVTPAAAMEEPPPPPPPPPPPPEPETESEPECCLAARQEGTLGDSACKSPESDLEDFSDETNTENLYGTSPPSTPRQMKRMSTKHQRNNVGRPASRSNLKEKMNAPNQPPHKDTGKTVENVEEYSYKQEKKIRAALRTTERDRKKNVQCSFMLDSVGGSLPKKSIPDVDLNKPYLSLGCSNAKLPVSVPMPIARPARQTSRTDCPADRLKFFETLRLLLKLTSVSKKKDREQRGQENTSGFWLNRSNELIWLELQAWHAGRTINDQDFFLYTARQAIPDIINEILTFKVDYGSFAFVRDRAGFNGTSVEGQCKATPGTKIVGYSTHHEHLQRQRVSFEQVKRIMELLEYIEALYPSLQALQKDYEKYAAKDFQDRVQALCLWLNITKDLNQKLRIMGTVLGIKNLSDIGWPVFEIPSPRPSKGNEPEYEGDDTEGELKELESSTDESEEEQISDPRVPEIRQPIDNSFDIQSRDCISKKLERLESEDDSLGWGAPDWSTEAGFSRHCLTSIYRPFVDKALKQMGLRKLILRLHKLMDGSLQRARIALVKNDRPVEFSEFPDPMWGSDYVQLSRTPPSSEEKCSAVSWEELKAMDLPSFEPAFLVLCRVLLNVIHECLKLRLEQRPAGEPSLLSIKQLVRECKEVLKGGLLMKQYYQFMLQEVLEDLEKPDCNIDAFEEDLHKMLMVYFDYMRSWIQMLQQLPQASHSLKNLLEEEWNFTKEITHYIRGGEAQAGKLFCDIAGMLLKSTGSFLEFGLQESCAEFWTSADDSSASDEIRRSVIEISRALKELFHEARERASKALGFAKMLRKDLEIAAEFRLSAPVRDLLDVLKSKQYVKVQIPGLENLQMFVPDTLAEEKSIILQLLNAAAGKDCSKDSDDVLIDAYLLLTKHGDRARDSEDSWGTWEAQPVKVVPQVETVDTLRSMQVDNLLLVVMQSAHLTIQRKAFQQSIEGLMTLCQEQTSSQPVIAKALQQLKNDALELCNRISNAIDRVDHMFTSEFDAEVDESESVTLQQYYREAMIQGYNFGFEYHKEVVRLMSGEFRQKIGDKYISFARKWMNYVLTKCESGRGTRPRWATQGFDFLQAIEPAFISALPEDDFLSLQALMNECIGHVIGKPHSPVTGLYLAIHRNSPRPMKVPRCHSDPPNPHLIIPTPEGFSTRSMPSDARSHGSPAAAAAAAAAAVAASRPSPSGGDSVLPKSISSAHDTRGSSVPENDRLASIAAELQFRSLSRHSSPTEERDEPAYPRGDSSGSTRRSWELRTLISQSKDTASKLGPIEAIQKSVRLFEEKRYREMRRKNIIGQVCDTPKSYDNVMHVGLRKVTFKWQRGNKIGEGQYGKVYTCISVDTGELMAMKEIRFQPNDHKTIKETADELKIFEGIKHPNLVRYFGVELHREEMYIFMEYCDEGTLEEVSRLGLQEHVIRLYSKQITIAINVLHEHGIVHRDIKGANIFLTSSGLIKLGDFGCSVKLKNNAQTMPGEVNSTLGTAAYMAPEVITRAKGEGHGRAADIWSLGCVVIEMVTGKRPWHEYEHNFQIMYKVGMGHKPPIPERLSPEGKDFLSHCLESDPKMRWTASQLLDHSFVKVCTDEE
Sequence of JAK1 JH1 catalytic (human) (P23458 whole entry, looked up): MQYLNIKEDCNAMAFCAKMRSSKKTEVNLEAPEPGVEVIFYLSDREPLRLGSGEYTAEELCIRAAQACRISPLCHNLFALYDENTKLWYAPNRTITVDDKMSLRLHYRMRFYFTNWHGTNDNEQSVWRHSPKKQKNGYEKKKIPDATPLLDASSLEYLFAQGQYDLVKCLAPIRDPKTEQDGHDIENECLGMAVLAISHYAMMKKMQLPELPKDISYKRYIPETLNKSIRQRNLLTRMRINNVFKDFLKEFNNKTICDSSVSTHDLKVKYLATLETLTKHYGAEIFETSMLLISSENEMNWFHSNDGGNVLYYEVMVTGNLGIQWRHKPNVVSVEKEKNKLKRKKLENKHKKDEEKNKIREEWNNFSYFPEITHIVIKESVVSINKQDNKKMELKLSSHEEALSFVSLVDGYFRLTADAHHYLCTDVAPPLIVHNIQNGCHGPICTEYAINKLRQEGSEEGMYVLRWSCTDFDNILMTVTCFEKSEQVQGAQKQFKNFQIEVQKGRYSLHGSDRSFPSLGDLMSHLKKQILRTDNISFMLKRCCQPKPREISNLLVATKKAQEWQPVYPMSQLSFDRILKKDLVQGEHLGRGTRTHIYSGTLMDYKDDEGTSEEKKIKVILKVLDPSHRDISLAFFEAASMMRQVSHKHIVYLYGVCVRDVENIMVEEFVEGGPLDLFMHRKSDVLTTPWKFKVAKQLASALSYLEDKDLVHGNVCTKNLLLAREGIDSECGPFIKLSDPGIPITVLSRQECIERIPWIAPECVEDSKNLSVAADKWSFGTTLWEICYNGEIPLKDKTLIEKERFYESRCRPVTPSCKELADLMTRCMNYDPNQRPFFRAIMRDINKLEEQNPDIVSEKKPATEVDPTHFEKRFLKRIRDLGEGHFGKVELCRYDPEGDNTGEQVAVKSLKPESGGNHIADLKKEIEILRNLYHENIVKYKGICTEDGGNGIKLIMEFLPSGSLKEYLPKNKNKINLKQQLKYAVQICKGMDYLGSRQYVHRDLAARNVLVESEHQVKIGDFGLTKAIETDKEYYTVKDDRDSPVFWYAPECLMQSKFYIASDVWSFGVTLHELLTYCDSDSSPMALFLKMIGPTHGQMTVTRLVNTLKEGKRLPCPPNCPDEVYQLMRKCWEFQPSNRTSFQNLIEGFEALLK
Sequence of NEK7 (human) (Q8TDX7 whole entry, looked up): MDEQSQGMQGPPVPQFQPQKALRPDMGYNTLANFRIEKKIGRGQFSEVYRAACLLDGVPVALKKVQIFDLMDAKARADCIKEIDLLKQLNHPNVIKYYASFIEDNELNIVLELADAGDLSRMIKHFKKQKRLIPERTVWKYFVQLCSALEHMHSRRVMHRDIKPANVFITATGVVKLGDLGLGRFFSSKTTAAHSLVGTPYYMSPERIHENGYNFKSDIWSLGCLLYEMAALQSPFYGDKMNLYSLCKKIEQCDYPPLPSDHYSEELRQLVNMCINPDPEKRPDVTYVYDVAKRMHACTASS
Sequence of GSK3B (human) (P49841 whole entry, looked up): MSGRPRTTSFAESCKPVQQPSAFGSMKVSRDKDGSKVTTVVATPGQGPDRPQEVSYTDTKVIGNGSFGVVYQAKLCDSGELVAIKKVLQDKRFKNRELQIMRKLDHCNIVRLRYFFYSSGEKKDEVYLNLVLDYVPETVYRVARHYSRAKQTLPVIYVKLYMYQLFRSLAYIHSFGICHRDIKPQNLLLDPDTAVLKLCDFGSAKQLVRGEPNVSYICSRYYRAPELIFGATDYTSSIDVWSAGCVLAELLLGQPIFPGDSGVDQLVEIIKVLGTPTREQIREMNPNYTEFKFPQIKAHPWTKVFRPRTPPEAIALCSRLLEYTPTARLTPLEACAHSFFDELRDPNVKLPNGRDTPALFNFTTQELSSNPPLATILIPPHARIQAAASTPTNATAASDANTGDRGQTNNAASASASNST

| Compound | kinase still bound, per cent of control [1] [%] | kinase still bound, per cent of control [2] [%] | kinase still bound, per cent of control [3] [%] | kinase still bound, per cent of control [4] [%] | kinase still bound, per cent of control [5] [%] | kinase still bound, per cent of control [6] [%] | kinase still bound, per cent of control [7] [%] | kinase still bound, per cent of control [8] [%] | kinase still bound, per cent of control [9] [%] | kinase still bound, per cent of control [10] [%] | kinase still bound, per cent of control [11] [%] | kinase still bound, per cent of control [12] [%] | kinase still bound, per cent of control [13] [%] | kinase still bound, per cent of control [14] [%] | kinase still bound, per cent of control [15] [%] | kinase still bound, per cent of control [16] [%] | kinase still bound, per cent of control [17] [%] | kinase still bound, per cent of control [18] [%] | kinase still bound, per cent of control [19] [%] | kinase still bound, per cent of control [20] [%] | other results |
| --- | --- | --- | --- | --- | --- | --- | --- | --- | --- | --- | --- | --- | --- | --- | --- | --- | --- | --- | --- | --- | --- |
| COc1cc2c(Nc3ccc(NC(=O)c4ccccc4)cc3)ncnc2cc1OCCCN1CCOCC1 | 100 | 73 | 100 | 1.8 | 100 | 2.4 | 59 | 12 | 59 | 70 | 100 | 100 | 62 | 79 | 66 | 7.9 | 0.3 | 42 | 33 | 14 | kinase still bound, per cent of control [21]: 62%; kinase still bound, per cent of control [22]: 71%; kinase still bound, per cent of control [23]: 100%; kinase still bound, per cent of control [24]: 90%; kinase still bound, per cent of control [25]: 100%; kinase still bound, per cent of control [26]: 94%; kinase still bound, per cent of control [27]: 60%; kinase still bound, per cent of control [28]: 100%; kinase still bound, per cent of control [29]: 78%; kinase still bound, per cent of control [30]: 4.9%; kinase still bound, per cent of control [31]: 89%; kinase still bound, per cent of control [32]: 8.8%; kinase still bound, per cent of control [33]: 72%; kinase still bound, per cent of control [34]: 85%; kinase still bound, per cent of control [35]: 71%; kinase still bound, per cent of control [36]: 23%; kinase still bound, per cent of control [37]: 100%; kinase still bound, per cent of control [38]: 100%; kinase still bound, per cent of control [39]: 6.3%; kinase still bound, per cent of control [40]: 78% |
| CCc1nc(-c2cccc(C)c2)c(-c2ccnc(NC(=O)c3ccccc3)c2)s1 | 100 | 96 | 100 | 80 | 100 | 83 | 70 | 80 | 0.45 | 60 | 100 | 88 | 100 | 60 | 97 | 88 | 5.2 | 0 | 94 | 94 | kinase still bound, per cent of control [21]: 85%; kinase still bound, per cent of control [22]: 100%; kinase still bound, per cent of control [23]: 100%; kinase still bound, per cent of control [24]: 88%; kinase still bound, per cent of control [25]: 100%; kinase still bound, per cent of control [26]: 96%; kinase still bound, per cent of control [27]: 4.4%; kinase still bound, per cent of control [28]: 76%; kinase still bound, per cent of control [30]: 97%; kinase still bound, per cent of control [31]: 98%; kinase still bound, per cent of control [32]: 17%; kinase still bound, per cent of control [33]: 100%; kinase still bound, per cent of control [34]: 89%; kinase still bound, per cent of control [35]: 4.3%; kinase still bound, per cent of control [36]: 64%; kinase still bound, per cent of control [37]: 80%; kinase still bound, per cent of control [38]: 100%; kinase still bound, per cent of control [39]: 26%; kinase still bound, per cent of control [40]: 74% |
| O=c1[nH]c2ccccc2n1C1CCN(Cc2ccc(-c3nc4cc5[nH]cnc5cc4nc3-c3ccccc3)cc2)CC1 | 100 | 86 | 82 | 45 | 82 | 65 | 100 | 77 | 47 | 89 | 100 | 69 | 100 | 100 | 90 | 93 | 72 | 71 | 85 | 69 | kinase still bound, per cent of control [21]: 78%; kinase still bound, per cent of control [22]: 98%; kinase still bound, per cent of control [23]: 88%; kinase still bound, per cent of control [24]: 100%; kinase still bound, per cent of control [25]: 88%; kinase still bound, per cent of control [26]: 100%; kinase still bound, per cent of control [27]: 88%; kinase still bound, per cent of control [28]: 92%; kinase still bound, per cent of control [29]: 86%; kinase still bound, per cent of control [30]: 72%; kinase still bound, per cent of control [31]: 100%; kinase still bound, per cent of control [33]: 67%; kinase still bound, per cent of control [34]: 98%; kinase still bound, per cent of control [35]: 100%; kinase still bound, per cent of control [36]: 75%; kinase still bound, per cent of control [37]: 100%; kinase still bound, per cent of control [38]: 100%; kinase still bound, per cent of control [39]: 56%; kinase still bound, per cent of control [40]: 77% |
